Measured values as given in US20230265151A1, “GIP/GLP1 CO-AGONIST COMPOUNDS” (priority 2020, published 2023).
Where two headings read alike, the source gives them in different places. *1 amine or outer side, *2 acyl side, *3 side chain or, on linkers, in order; H or OH if unused. Where a SMILES comes first, the peptide text is derived from it. Side-chain parts run from the residue outwards. [ ]: non-standard residue; d: D form. The star is where a group is joined. αMePhe(2-F) = C[C@](N)(Cc1ccccc1F)C(=O)O; γGlu = O=C(O)[C@H](CCC(=O)[*:2])N[*:1]; αMeY = C[C@](N)(Cc1ccc(O)cc1)C(=O)O; αMeF = C[C@](N)(Cc1ccccc1)C(=O)O; 4Pal = N[C@@H](Cc1ccncc1)C(=O)O; αMeL = CC(C)C[C@](C)(N)C(=O)O; Lauroyl = CCCCCCCCCCCC(=O)*; Orn = NCCC[C@H](N)C(=O)O; AEEA = NCCOCCOCC(=O)O; Aib = CC(C)(N)C(=O)O

Columns and labels:
[1] = target: T1, hGCGR (Homo sapiens, UniProt P47871); assay: Functional cAMP formation (HTRF) in HEK-293 clonal cells expressing hGCGR, 0.1% bovine casein, without or with 1.0% human serum albumin; type: cell-based
T1 construct: expressed in transfected cells
T1 sequence (P47871 26-477): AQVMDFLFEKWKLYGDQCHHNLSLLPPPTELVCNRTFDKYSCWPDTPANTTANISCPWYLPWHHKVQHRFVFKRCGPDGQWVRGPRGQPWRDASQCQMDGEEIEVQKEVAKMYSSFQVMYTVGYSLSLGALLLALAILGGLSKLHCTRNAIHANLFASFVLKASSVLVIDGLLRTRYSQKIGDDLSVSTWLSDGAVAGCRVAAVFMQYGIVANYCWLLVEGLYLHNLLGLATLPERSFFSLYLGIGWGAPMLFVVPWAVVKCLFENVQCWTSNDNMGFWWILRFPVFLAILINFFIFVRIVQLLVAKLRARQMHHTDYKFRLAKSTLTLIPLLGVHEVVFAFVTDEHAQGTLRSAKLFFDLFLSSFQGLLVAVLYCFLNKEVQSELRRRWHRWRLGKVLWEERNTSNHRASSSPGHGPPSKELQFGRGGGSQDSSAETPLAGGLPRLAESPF
How it was run: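 Cells were stimulated with peptide for 30 min at 37° C, then intracellular cAMP was measured by competitive HTRF (665/620 nm ratio) and converted to nM using a cAMP standard curve. Relative EC50 and Emax came from four-parameter logistic fits of percent maximal response against peptide concentration.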

[2] = target: hGLP-1R (Homo sapiens, UniProt P43220); assay: Functional cAMP formation (HTRF) in HEK-293 clonal cells expressing hGLP-1R, 0.1% bovine casein, without or with 1.0% human serum albumin; type: cell-based; parameters: expressed in transfected cells; details: for EC50: cAMP, 0.1% bovine casein (no human serum albumin), geometric mean
Sequence of hGLP-1R (P43220 24-463): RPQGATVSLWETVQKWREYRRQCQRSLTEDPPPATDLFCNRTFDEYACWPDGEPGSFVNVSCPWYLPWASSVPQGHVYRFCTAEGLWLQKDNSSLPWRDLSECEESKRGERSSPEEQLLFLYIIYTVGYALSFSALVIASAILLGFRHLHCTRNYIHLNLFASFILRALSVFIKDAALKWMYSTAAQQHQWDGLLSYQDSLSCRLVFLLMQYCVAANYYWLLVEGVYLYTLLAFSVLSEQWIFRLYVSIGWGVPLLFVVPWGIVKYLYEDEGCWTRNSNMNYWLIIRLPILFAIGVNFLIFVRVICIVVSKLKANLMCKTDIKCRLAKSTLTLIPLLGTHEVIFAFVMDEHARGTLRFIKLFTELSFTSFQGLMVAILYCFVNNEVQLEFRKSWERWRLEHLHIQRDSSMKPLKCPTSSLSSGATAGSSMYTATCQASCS
Procedure: After a 30-min incubation at 37° C., the resulting increase in intracellular cAMP is quantitatively determined using a CisBio cAMP Dynamic 2 HTRF Assay Kit (62AM4PEJ). Briefly, cAMP levels within the cell are detected by adding the cAMP-d2 conjugate in cell lysis buffer (10 µL) followed by the antibody anti-cAMP-Eu^3+-Cryptate, also in cell lysis buffer (10 µL). The resulting competitive assay is incubated for at least 60 min at room temperature, and then is detected using a PerkinElmer Envision® instrument with excitation at 320 nm and emission at 665 nm and 620 nm. Envision units (emission at 665 nm/620 nm* 10,000) are inversely proportional to the amount of cAMP present and are converted to nM cAMP per well us-ing a cAMP standard curve. […] A relative EC50 value and percent top (Emax) are derived by non-linear regression analysis using the percent maximal response vs. the concentration of peptide added, fitted to a four-parameter logistic equation.

[3] = hGCGR EC50, nM (SEM, n), cAMP, incubated at 37° C., 0.1% bovine casein (no human serum albumin), geometric mean
[4] = cAMP, incubated at 37° C., 0.1% bovine casein (no human serum albumin), geometric mean, read-out: hGCGR EC50, nM (SEM, n)
[5] = incubated at 37° C., read-out: hGLP-1R EC50, nM (SEM, n)

`CC[C@H](C)[C@H](NC(=O)[C@H](CC(C)C)NC(=O)[C@](C)(Cc1ccc(O)cc1)NC(=O)[C@H](CCCCNC(=O)COCCOCCNC(=O)COCCOCCNC(=O)CC[C@H](NC(=O)CCCCCCCCCCCCC(=O)O)C(=O)O)NC(=O)[C@@H](NC(=O)[C@](C)(Cc1ccccc1)NC(=O)[C@H](CCC(=O)O)NC(=O)C(C)(C)NC(=O)[C@H](CCC(N)=O)NC(=O)[C@H](C)NC(=O)[C@H](CCCCNC(=O)COCCOCCNC(=O)COCCOCCNC(=O)CC[C@H](NC(=O)CCCCCCCCCCCCC(=O)O)C(=O)O)NC(=O)[C@H](CCCN)NC(=O)[C@H](CC(=O)O)NC(=O)[C@H](CC(C)C)NC(=O)[C@](C)(CC(C)C)NC(=O)[C@@H](NC(=O)[C@H](CO)NC(=O)C1(NC(=O)[C@H](CC(=O)O)NC(=O)[C@H](CO)NC(=O)[C@@H](NC(=O)[C@](C)(Cc2ccccc2F)NC(=O)[C@@H](NC(=O)CNC(=O)[C@H](CCC(=O)O)NC(=O)C(C)(C)NC(=O)[C@@H](N)Cc2ccc(O)cc2)[C@@H](C)O)[C@@H](C)O)CCCC1)[C@@H](C)CC)[C@@H](C)CC)C(=O)N[C@@H](CCC(=O)O)C(=O)NCC(=O)NCC(=O)N1CCC[C@H]1C(=O)N[C@@H](CO)C(=O)N[C@@H](CO)C(=O)NCC(=O)N[C@@H](C)C(=O)N1CCC[C@H]1C(=O)N1CCC[C@H]1C(=O)N1CCC[C@H]1C(=O)N[C@@H](CO)C(N)=O` [Example 120] gave an EC50 [1, 3] greater than 9950 nM and an EC50 ([2]; hGLP-1R EC50, nM (SEM, n), incubated at 37° C.) of 1.43 nM.

In the case of `CC[C@H](C)[C@H](NC(=O)[C@H](CC(C)C)NC(=O)[C@](C)(Cc1ccc(O)cc1)NC(=O)[C@@H](CCC(=O)O)NC(=O)[C@@H](NC(=O)[C@H](Cc1ccccc1)NC(=O)[C@H](CCC(=O)O)NC(=O)C(C)(C)NC(=O)[C@H](CCC(N)=O)NC(=O)[C@H](C)NC(=O)[C@H](CCCCNC(=O)COCCOCCNC(=O)COCCOCCNC(=O)CC[C@H](NC(=O)CCCCCCCCCCCCC(=O)O)C(=O)O)NC(=O)[C@H](CCCN)NC(=O)[C@H](CC(=O)O)NC(=O)[C@H](CC(C)C)NC(=O)[C@](C)(CC(C)C)NC(=O)[C@@H](NC(=O)[C@H](CO)NC(=O)C1(NC(=O)[C@H](CC(=O)O)NC(=O)[C@H](CO)NC(=O)[C@@H](NC(=O)[C@](C)(Cc2ccccc2F)NC(=O)[C@@H](NC(=O)CNC(=O)[C@H](CCC(=O)O)NC(=O)C(C)(C)NC(=O)[C@@H](N)Cc2ccc(O)cc2)[C@@H](C)O)[C@@H](C)O)CCCC1)[C@@H](C)CC)[C@@H](C)CC)C(=O)N[C@@H](CCC(=O)O)C(=O)NCC(=O)NCC(=O)N[C@@H](CCCCNC(=O)COCCOCCNC(=O)COCCOCCNC(=O)CC[C@H](NC(=O)CCCCCCCCCCCCC(=O)O)C(=O)O)C(=O)N[C@@H](CO)C(=O)N[C@@H](CO)C(=O)NCC(=O)N[C@@H](C)C(=O)N1CCC[C@H]1C(=O)N1CCC[C@H]1C(=O)N1CCC[C@H]1C(=O)N[C@@H](CO)C(N)=O` [Example 53], the EC50 ([1]; 0.1% bovine casein and 1.0% human serum albumin, 37° C., geometric mean, read-out: hGCGR EC50, nM (SEM, n)) is reported as greater than 9950 nM, the EC50 [1, 4] is reported as greater than 9950 nM and the Emax ([2]; HEK293, 0.1% bovine casein and 1.0% human serum albumin, 37° C., percent of maximal response to GLP-1(7-36)NH2, read-out: hGLP-1R Emax, % ± SEM) is reported as 89.3 ± 6.12%. It also gave an Emax ([2]; HEK293, percent of maximal response to GLP-1(7-36)NH2, 37° C., 0.1% bovine casein, arithmetic mean, read-out: hGLP-1R Emax, % ± SEM) of 89.9 ± 9.41% and an EC50 [2, 5] of 0.18 nM.

`CC[C@H](C)[C@H](NC(=O)[C@H](CC(C)C)NC(=O)[C@](C)(Cc1ccccc1)NC(=O)[C@H](CCCCNC(=O)COCCOCCNC(=O)COCCOCCNC(=O)CC[C@H](NC(=O)CCCCCCCCCCCCC(=O)O)C(=O)O)NC(=O)[C@@H](NC(=O)[C@](C)(Cc1ccccc1)NC(=O)[C@H](CCC(=O)O)NC(=O)C(C)(C)NC(=O)[C@H](CCC(N)=O)NC(=O)[C@H](C)NC(=O)[C@H](CCCCNC(=O)COCCOCCNC(=O)COCCOCCNC(=O)CC[C@H](NC(=O)CCCCCCCCCCCCC(=O)O)C(=O)O)NC(=O)[C@H](CCCN)NC(=O)[C@H](CC(=O)O)NC(=O)[C@H](CC(C)C)NC(=O)[C@](C)(CC(C)C)NC(=O)[C@@H](NC(=O)[C@H](CO)NC(=O)C1(NC(=O)[C@H](CC(=O)O)NC(=O)[C@H](CO)NC(=O)[C@@H](NC(=O)[C@](C)(Cc2ccccc2F)NC(=O)[C@@H](NC(=O)CNC(=O)[C@H](CCC(=O)O)NC(=O)C(C)(C)NC(=O)[C@@H](N)Cc2ccc(O)cc2)[C@@H](C)O)[C@@H](C)O)CCCC1)[C@@H](C)CC)[C@@H](C)CC)C(=O)N[C@@H](CCC(=O)O)C(=O)NCC(=O)NCC(=O)N1CCC[C@H]1C(=O)N[C@@H](CO)C(=O)N[C@@H](CO)C(=O)NCC(=O)N[C@@H](C)C(=O)N1CCC[C@H]1C(=O)N1CCC[C@H]1C(=O)N1CCC[C@H]1C(=O)N[C@@H](CO)C(N)=O` [Example 124] showed an EC50 [1, 3] greater than 9950 nM and an Emax ([2]; HEK293, read-out: hGLP-1R Emax, % ± SEM, percent of maximal response to GLP-1(7-36)NH2, 37° C., 0.1% bovine casein, arithmetic mean) of 93.3%.

With `CCCCCCCCCCCC(=O)N[C@@H](CCC(=O)NCCOCCOCC(=O)NCCOCCOCC(=O)NCCOCCOCC(=O)NCCCC[C@H](NC(=O)[C@H](CO)NC(=O)[C@@H]1CCCN1C(=O)[C@@H]1CCCN1C(=O)[C@@H]1CCCN1C(=O)[C@H](C)NC(=O)CNC(=O)[C@H](CO)NC(=O)[C@H](CO)NC(=O)[C@@H]1CCCN1C(=O)CNC(=O)CNC(=O)[C@H](CCC(=O)O)NC(=O)[C@@H](NC(=O)[C@H](CC(C)C)NC(=O)[C@](C)(Cc1ccc(O)cc1)NC(=O)[C@@H](CCC(=O)O)NC(=O)[C@@H](NC(=O)[C@](C)(Cc1ccccc1)NC(=O)[C@H](CCC(=O)O)NC(=O)C(C)(C)NC(=O)[C@H](CCC(N)=O)NC(=O)[C@H](C)NC(=O)[C@H](CCCCNC(=O)COCCOCCNC(=O)COCCOCCNC(=O)COCCOCCNC(=O)CC[C@H](NC(=O)CCCCCCCCCCC)C(=O)O)NC(=O)[C@H](CCCN)NC(=O)[C@H](CC(=O)O)NC(=O)[C@H](CC(C)C)NC(=O)[C@](C)(CC(C)C)NC(=O)[C@@H](NC(=O)C(C)(C)NC(=O)[C@H](Cc1ccncc1)NC(=O)[C@H](CC(=O)O)NC(=O)[C@H](CO)NC(=O)[C@@H](NC(=O)[C@](C)(Cc1ccccc1F)NC(=O)[C@@H](NC(=O)CNC(=O)[C@H](CCC(=O)O)NC(=O)C(C)(C)NC(=O)[C@@H](N)Cc1ccc(O)cc1)[C@@H](C)O)[C@@H](C)O)[C@@H](C)CC)[C@@H](C)CC)[C@@H](C)CC)C(N)=O)C(=O)O` [Example 439] (H-Y[Aib]EGT[αMePhe(2-F)]TSD[4Pal][Aib]I[αMeL]LD[Orn]K([AEEA-AEEA-AEEA-γGlu-Lauroyl])AQ[Aib]E[αMeF]I[dE][αMeY]LIEGGPSSGAPPPSK([AEEA-AEEA-AEEA-γGlu-Lauroyl])-NH2) the EC50 ([1]; cAMP, 37° C., 0.1% bovine casein (no human serum albumin), geometric mean, read-out: hGCGR EC50, nM (SEM, n)) was greater than 9950 nM, the EC50 ([1]; cAMP, 37° C., 0.1% bovine casein and 1.0% human serum albumin, geometric mean (SEM, n), read-out: hGCGR EC50, nM (SEM, n)) was greater than 9950 nM and the Emax ([2]; HEK293, cAMP, 37° C., 0.1% bovine casein and 1.0% human serum albumin, percent of maximal response to GLP-1(7-36)NH2, read-out: hGLP-1R Emax, % ± SEM) was 97%. The Emax ([2]; HEK293, cAMP, 37° C., 0.1% bovine casein, percent of maximal response to GLP-1(7-36)NH2, arithmetic mean, read-out: hGLP-1R Emax, % ± SEM) was 95.7% and the EC50 ([2]; 37° C., read-out: hGLP-1R EC50, nM (SEM, n)) was 0.11 nM.

In the case of `CC[C@H](C)[C@H](NC(=O)[C@H](CCCN)NC(=O)[C@H](CC(=O)O)NC(=O)[C@H](CC(C)C)NC(=O)[C@](C)(CC(C)C)NC(=O)[C@@H](NC(=O)[C@H](CO)NC(=O)[C@H](CCCCNC(=O)COCCOCCNC(=O)COCCOCCNC(=O)CC[C@H](NC(=O)CCCCCCCCCCCCC(=O)O)C(=O)O)NC(=O)[C@H](CC(=O)O)NC(=O)[C@H](CO)NC(=O)[C@@H](NC(=O)[C@](C)(Cc1ccccc1F)NC(=O)[C@@H](NC(=O)CNC(=O)[C@H](CCC(=O)O)NC(=O)C(C)(C)NC(=O)[C@@H](N)Cc1ccc(O)cc1)[C@@H](C)O)[C@@H](C)O)[C@@H](C)CC)C(=O)N[C@@H](C)C(=O)N[C@@H](CCC(N)=O)C(=O)NC(C)(C)C(=O)N[C@@H](CCCCNC(=O)COCCOCCNC(=O)COCCOCCNC(=O)CC[C@H](NC(=O)CCCCCCCCCCCCC(=O)O)C(=O)O)C(=O)N[C@@H](Cc1ccccc1)C(=O)N[C@H](C(=O)N[C@H](CCC(=O)O)C(=O)N[C@@](C)(Cc1ccc(O)cc1)C(=O)N[C@@H](CC(C)C)C(=O)N[C@H](C(=O)N[C@@H](CCC(=O)O)C(=O)NCC(=O)NCC(=O)N1CCC[C@H]1C(=O)N[C@@H](CO)C(=O)N[C@@H](CO)C(=O)NCC(=O)N[C@@H](C)C(=O)N1CCC[C@H]1C(=O)N1CCC[C@H]1C(=O)N1CCC[C@H]1C(=O)N[C@@H](CO)C(N)=O)[C@@H](C)CC)[C@@H](C)CC` [Example 105], the EC50 [1, 4] is reported as greater than 9950 nM and the EC50 [2, 5] is reported as 0.52 nM.
